Where two headings read alike, the source gives them in different places. Square brackets hold non-standard residues; d marks the D form. Peptide text beside a SMILES is read from it. * marks the point of attachment. dPhe(4-NHCONH2) = NC(=O)Nc1ccc(C[C@@H](N)C(=O)O)cc1; Dihydroorotyl(S) = O=C1C[C@@H](C(=O)*)NC(=O)N1; dPhe(4-Cl) = N[C@H](Cc1ccc(Cl)cc1)C(=O)O; Phe(4-NH2) = Nc1ccc(C[C@H](N)C(=O)O)cc1; d2Nal = N[C@H](Cc1ccc2ccccc2c1)C(=O)O; Lys(iPr) = CC(C)NCCCC[C@H](N)C(=O)O; d3Pal = N[C@H](Cc1cccnc1)C(=O)O
What was measured:
[1] = system: NCI-H292 lung cancer cells; assay: FDA drug screening, complete media vs cholesterol-free media without statin (TABLE 1); assay type: cell-based, human
[2] = system: NCI-H292 lung cancer cells; assay: FDA drug screening, complete media vs cholesterol-free media with simvastatin (TABLE 2); assay type: cell-based, human
[3] = NCI-H292 cells, cholesterol-free media without statin, FDA drug library screen
[4] = NCI-H292 cells, complete media, FDA drug library screen
[5] = complete media vs cholesterol-free media + simvastatin (0.04 μM), […]
[6] = Complete minus Cholesterol-free, >0 enhanced anti-cancer activity, about 0 neutral, <0 antagonist
[7] = NCI-H292 cells, cholesterol-free media without statin
[8] = NCI-H292 cells, cholesterol-free media with simvastatin 0.04 μM, cell growth value in FDA drug screen
[9] = NCI-H292 cells, complete media, cell growth value in FDA drug screen
[10] = complete media minus cholesterol-free media + simvastatin, >0 enhanced anti-cancer activity, about 0 neutral, <0 antagonist
[11] = Complete minus Cholesterol-free, […]
[12] = NCI-H292 cells, cholesterol-free media with simvastatin 0.04 μM, […]
[13] = NCI-H292 cells, complete media, […]
[14] = complete media minus cholesterol-free media + simvastatin, […]
[15] = complete vs cholesterol-free media, greater than 0 enhanced anti-cancer activity, about 0 neutral, below 0 antagonists
[16] = NCI-H292 cells, drug in cholesterol-free media with simvastatin 0.04 μM
[17] = NCI-H292 cells, drug in complete media
[18] = complete media vs cholesterol-free media + simvastatin (0.04 μM), >0 enhanced anti-cancer activity, about 0 neutral, <0 antagonist
[19] = NCI-H292 cells, cholesterol-free media with simvastatin 0.04 μM, FDA drug library screen (TABLE 2)
[20] = NCI-H292 cells, complete media, FDA drug library screen (TABLE 2)
[21] = complete media minus cholesterol-free media + simvastatin (0.04 μM), >0 enhanced anti-cancer activity, about 0 neutral, <0 antagonist
[22] = NCI-H292 cells in cholesterol-free media without statin
[23] = NCI-H292 cells in complete media

Work on `CC[C@H]1OC(=O)[C@H](C)[C@@H](O[C@H]2C[C@@](C)(OC)[C@@H](O)[C@H](C)O2)[C@H](C)[C@@H](O[C@@H]2O[C@H](C)C[C@H](N(C)C)[C@H]2O)[C@](C)(O)C[C@@H](C)C(=O)[C@H](C)[C@H]2OC(=O)O[C@@]21C` [Davercin] yielded a Cholesterol-free [1, 3] of 0.5403, a Complete [1, 4] of 0.9622 and a Difference ([1]; complete vs cholesterol-free media, […]) of 0.42. The “Cholesterol-free media + simvastatin (0.04 μM)” value ([2]; NCI-H292 cells, FDA drug library screen, cholesterol-free media with simvastatin 0.04 μM) was 1.064, the “Complete Media” value ([2]; NCI-H292 cells, FDA drug library screen, complete media) was 0.9657 and the Difference [2, 5] was −0.10.
`C[N+](C)(C)CCCCCCCCCC[N+](C)(C)C.[Br-].[Br-]` [Decamethonium (Bromide)] gave a Cholesterol-free [1] of 1.121, a Complete [1] of 0.9062 and a Difference [1] of −0.21. For the same compound, the “Cholesterol-free media + simvastatin (0.04 μM)” value [2] was 1.129, the “Complete Media” value [2] was 0.9457 and the Difference [2] was −0.18.
Work on `Nc1ncn([C@H]2C[C@H](O)[C@@H](CO)O2)c(=O)n1` [Decitabine] yielded a Difference [1, 6] of −0.25, a Cholesterol-free [1, 7] of 0.8074 and a Complete ([1]; NCI-H292 cells, complete media) of 0.559. For the same compound, the “Cholesterol-free media + simvastatin (0.04 μM)” value [2, 8] was 0.7335, the “Complete Media” value [2, 9] was 0.7733 and the Difference [2, 10] was 0.04.
`Cl.Cl.OCCOCCN1CCN(C(c2ccccc2)c2ccccc2)CC1` [Decloxizine (dihydrochloride)] gave a Difference [1, 11] of −0.22, a Cholesterol-free [1, 7] of 1.186 and a Complete ([1]; NCI-H292 cells, complete media) of 0.9687. The “Cholesterol-free media + simvastatin (0.04 μM)” value [2, 12] was 0.9553, the “Complete Media” value [2, 13] was 1.042 and the Difference [2, 14] was 0.09.
In the case of `O=C(O)c1ccc(-n2nc(-c3ccccc3O)nc2-c2ccccc2O)cc1` [Deferasirox], the Cholesterol-free [1, 7] is reported as 1.441, the Complete ([1]; NCI-H292 cells, complete media) is reported as 0.9894 and the Difference [1, 15] is reported as −0.45. The “Cholesterol-free media + simvastatin (0.04 μM)” value [2, 16] was 1.22, the “Complete Media” value [2, 17] was 0.9596 and the Difference [2, 18] was −0.26.
`Cc1c(O)c(=O)ccn1C` [Deferiprone] gave a Cholesterol-free [1, 7] of 1.443, a Complete ([1]; NCI-H292 cells, complete media) of 1.044 and a Difference [1, 15] of −0.40. For the same compound, the “Cholesterol-free media + simvastatin (0.04 μM)” value [2, 19] was 1.047, the “Complete Media” value [2, 20] was 1.061 and the Difference [2, 21] was 0.01.
`CC(=O)OCC(=O)[C@@]12N=C(C)O[C@@H]1C[C@H]1[C@@H]3CCC4=CC(=O)C=C[C@]4(C)[C@H]3[C@@H](O)C[C@@]12C` [Deflazacort] gave a Cholesterol-free [1, 3] of 0.629, a Complete [1, 4] of 0.7651 and a Difference ([1]; complete vs cholesterol-free media, >0 enhanced anti-cancer activity, about 0 neutral, <0 antagonist) of 0.14. For the same compound, the “Cholesterol-free media + simvastatin (0.04 μM)” value [2, 19] was 0.6257, the “Complete Media” value [2, 20] was 0.5899 and the Difference [2, 21] was −0.04.
`CC(=O)N[C@H](Cc1ccc2ccccc2c1)C(=O)N[C@H](Cc1ccc(Cl)cc1)C(=O)N[C@H](Cc1cccnc1)C(=O)N[C@@H](CO)C(=O)N[C@@H](Cc1ccc(NC(=O)[C@@H]2CC(=O)NC(=O)N2)cc1)C(=O)N[C@H](Cc1ccc(NC(N)=O)cc1)C(=O)N[C@@H](CC(C)C)C(=O)N[C@@H](CCCCNC(C)C)C(=O)N1CCC[C@H]1C(=O)N[C@H](C)C(N)=O` [Degarelix] (Ac-[d2Nal][dPhe(4-Cl)][d3Pal]S[Phe(4-NH2)](Dihydroorotyl(S))[dPhe(4-NHCONH2)]L[Lys(iPr)]P[dA]-NH2) gave a Difference [1, 11] of −0.81, a Cholesterol-free [1, 22] of 1.673 and a Complete [1, 23] of 0.859. The “Cholesterol-free media + simvastatin (0.04 μM)” value [2, 19] was 1.679, the “Complete Media” value [2, 20] was 1.609 and the Difference ([2]; complete media minus cholesterol-free media + simvastatin (0.04 μM), […]) was −0.07.
With `C=C1CC[C@@H]2[C@](C)(COC(=O)CCC(=O)O)[C@H](OC(=O)CCC(=O)O)CC[C@@]2(C)[C@@H]1/C=C/C1=CCOC1=O` [Dehydroandrographolide succinate] the Difference [1, 11] was −1.21, the Cholesterol-free [1, 22] was 2.195 and the Complete [1, 23] was 0.9855. The “Cholesterol-free media + simvastatin (0.04 μM)” value [2, 12] was 0.8998, the “Complete Media” value [2, 13] was 1.004 and the Difference [2, 14] was 0.10.
`C=C1CC[C@@H]2[C@](C)(CO)[C@H](O)CC[C@@]2(C)[C@@H]1/C=C/C1=CCOC1=O` [Dehydroandrographolide] was tested, and the Difference [1, 11] was −0.24, the Cholesterol-free [1, 7] was 0.9695 and the Complete ([1]; NCI-H292 cells, complete media) was 0.7339. The “Cholesterol-free media + simvastatin (0.04 μM)” value ([2]; NCI-H292 cells, FDA library drug in cholesterol-free media with simvastatin 0.04 μM) was 1.79, the “Complete Media” value ([2]; NCI-H292 cells, FDA library drug in complete media) was 1.432 and the Difference [2, 5] was −0.36.
`C[C@H](CCC(=O)O)[C@H]1CC[C@H]2[C@@H]3C(=O)C[C@@H]4CC(=O)CC[C@]4(C)[C@H]3CC(=O)[C@]12C` [Dehydrocholic acid] gave a Difference [1, 6] of −0.25, a Cholesterol-free [1, 7] of 1.151 and a Complete ([1]; NCI-H292 cells, complete media) of 0.9012. For the same compound, the “Cholesterol-free media + simvastatin (0.04 μM)” value [2, 8] was 0.8533, the “Complete Media” value [2, 9] was 0.9003 and the Difference [2, 10] was 0.05.
`CNC[C@H](O)[C@@H](O)[C@H](O)[C@H](O)CO.Nc1nc(-n2cc(C(=O)O)c(=O)c3cc(F)c(N4CC(O)C4)c(Cl)c32)c(F)cc1F` [Delafloxacin (meglumine)] gave a Cholesterol-free [1, 7] of 1.432, a Complete ([1]; NCI-H292 cells, complete media) of 1.009 and a Difference [1, 15] of −0.42. The “Cholesterol-free media + simvastatin (0.04 μM)” value [2, 16] was 1.156, the “Complete Media” value [2, 17] was 0.9953 and the Difference [2, 18] was −0.16.

From patent US20250144067A1, “PERSONALIZED STARVATION THERAPY FOR CANCER” (Faeth Therapeutics, Inc., priority 2021, published 2025)
